{"source": "ChEMBL document CHEMBL2384942", "about": "“Modulation of acridine mutagen ICR191 intercalation to DNA by methylxanthines--analysis with mathematical models” (Bioorg Med Chem, 2013)", "key": {"[1]": {"tested_on": "MDBK", "assay": "Binding affinity to ICR191 in MDBK cells assessed as decrease in formation of mutagen-chromatin complex at 1 to 12 mM by spectrophotometric analysis", "type": "cell-based"}, "[2]": {"tested_on": "MDBK", "assay": "Binding affinity to ICR191 in MDBK cells assessed as decrease in molar fraction of free mutagen at 1 to 12 mM by spectrophotometric analysis", "type": "cell-based"}, "[3]": {"tested_on": "Salmonella typhimurium", "assay": "Mutagenic activity in Salmonella typhimurium TA98 at 0.1 ug/plate after 4 hrs by Ames test", "type": "toxicity, organism-based", "conditions": "salmonella enterica subsp. enterica serovar typhimurium"}, "[4]": {"tested_on": "Salmonella typhimurium", "assay": "Protective effect in Salmonella typhimurium TA98 assessed as decrease in ICR191-induced mutagenic effect at 0.05 to 2000 ug/plate after 4 hrs by Ames test", "type": "functional, organism-based", "conditions": "Salmonella enterica subsp. enterica serovar Typhimurium"}, "[5]": {"tested_on": "Salmonella typhimurium", "assay": "Mutagenic activity in Salmonella typhimurium TA98 at 2 mg/plate after 4 hrs by Ames test", "type": "toxicity, organism-based", "conditions": "salmonella enterica subsp. enterica serovar typhimurium"}}, "note": "Active and inactive are the calls of the source. The calls are words filed in the database; no cut-off is given here."}
{"smiles": "Cn1c(=O)c2c(ncn2C)n(C)c1=O", "values": [{"measurement": "Activity", "setting": "[1]", "value": "Active"}, {"measurement": "Activity", "setting": "[2]", "value": "Active"}]}
{"smiles": "COc1ccc2nc3cc(Cl)ccc3c(NCCCNCCCl)c2c1.Cl.Cl.Cl.Cl", "values": [{"measurement": "Activity", "setting": "[3]", "value": "Non-toxic"}]}
{"smiles": "CC(=O)CCCCn1c(=O)c2c(ncn2C)n(C)c1=O", "note": "[PENTOXIFYLLINE]", "values": [{"measurement": "Activity", "setting": "[4]", "value": "Active"}, {"measurement": "Activity", "setting": "[5]", "value": "Non-toxic"}]}
